According to publication PMC10899662, “TopBP1 utilises a bipartite GINS binding mode to support genome replication” (Nature Communications, 2024):

Legend:
[1] = test system: TopBP1-proximal proteins (Psf3, Psf2); assay: APEX2 proximity biotinylation, streptavidin pulldown and mass spectrometry; type: cell-based, human; conditions: three proximity biotinylation experiments; + H2O2 vs - H2O2; four biological replicates
Protocol: Proximity labelling was performed in isogenic stable 293 Flip-In (Thermo Fisher; R75007) cells stably expressing TopBP1 N-terminal tagged with APEX2 or in 293T cells transiently expressing either N-terminal or C-terminally APEX2-tagged TopBP1. 24 h before transfection, 0.8 × 10^6 cells were seeded onto a 6-cm plate. For each condition, four dishes were separately transfected (biological replicates). One day after transfection, cells were incubated for 30 min with 500 µM biotin phenol at 37 °C, before incubation for 1 min at RT with or without (controls) 1 mM H2O2. The medium was discarded, and cells were washed three times with quenching buffer (10 mM sodium azide, 10 mM sodium ascorbate and 5 mM Trolox in Dulbecco’s PBS (Life Technologies 14190169). Cells were rinsed off the dishes with DPBS, transferred into reaction tubes before washing again with DPBS. Cells were lysed at 95 °C for 10 min in TSD buffer (50 mM Tris pH 7.5, 5 mM DTT and 1% SDS). Samples were diluted ten times with TNN buffer (20 mM Tris pH 7.9, 200 mM NaCl and 0.5% NP-40 alternative) and benzonase (75 U per sample) (Sigma E1014). Samples were incubated for 15 min at 4 °C and centrifuged at 21,000 × g for 2 min at 4 °C. Supernatants were incubated over night with 15 µl streptavidin sepharose beads (Sigma GE17-5113-01) at 4 °C. […]

Sld5 = assay: Myc immunoprecipitation from transfected 293T cells, Sld5 co-IP; type: binding; conditions: transiently transfected 293T cell lysates, anti-Myc
Protocol: Transient transfections of 6xMyc-Tev2-TopBP1 into 293T cells (ATCC CRL-11268) were carried out using PEI (polyethyleneimine) according to a protocol kindly shared by David Cortez’ lab. 4 µg plasmid DNA in 100 µl DMEM (Thermofisher, 41965039) without penicillin-streptomycin were combined with 2.4 µl Polyethylenimin (Sigma, 408727; 10 mg/ml) and incubated for 20 min before addition to 4 × 10^6 cells on a 10-cm dish. Transfected cells were used 72 h post transfection. 72 h post transfection, 293T cells were lysed by douncing in ten times cell pellet volume of lysis buffer (20 mM HEPES pH 8.0, 150 mM NaCl, 0.1% (v/v) Tween-20, 0.5 mM TCEP, 2% (v/v) glycerol, protease inhibitor cocktail (Roche, Complete protease inhibitor cocktail, 05056489001)), and centrifuged at 20,000 × g for 15 min at 4 °C. The soluble supernatant was added to magnetic anti-Myc beads (5 µl slurry per sample; Thermofischer, 88842) and incubated for 2 h at 4 °C rotating. Cells equivalent to 50% of a 15 cm dish were used per sample. Beads were washed three times in lysis buffer with 5 min incubation each, and finally boiled in 50 µl Laemmli loading buffer (6.5% glycerol, 715 mM β-mercaptoethanol, 3% SDS, 62.5 mM Tris-HCl pH 7.9, 0.005% bromphenol blue).
Non-APEX2-bio=nylated samples (-H2O2) were used as controls. […] Immunoprecipitated TopBP1 was detected using Ponceau (Ponc.) staining. […]

| Molecule | enrichment of Psf3 upon streptavidin pulldown [1] | Sld5 co-immunoprecipitation (Sld5) |
| --- | --- | --- |
| APEX2-tagged TopBP1: N- or C-terminally APEX2-tagged TopBP1 | specific enrichment of Psf3 |  |
| TopBP1-BRCT0-5: 6Myc-TEV2-tagged TopBP1-BRCT0-5 expressed in 293T cells (protein, left off: Strep, C-terminal, kept, 6Myc-TEV2-tagged TopBP1-BRCT0-5 expressed in 293T cells) MSRNDKEPFFVKFLKSSDNSKCFFKALESIKEFQSEEYLQIITEEEALKIKENDRSLYICDPFSGVVFDHLKKLGCRIVGPQVVIFCMHHQRCVPRAEHPVYNMVMSDVTISCTSLEKEKREEVHKYVQMMGGRVYRDLNVSVTHLIAGEVGSKKYLVAANLKKPILLPSWIKTLWEKSQEKKITRYTDINMEDFKCPIFLGCIICVTGLCGLDRKEVQQLTVKHGGQYMGQLKMNECTHLIVQEPKGQKYECAKRWNVHCVTTQWFFDSIEKGFCQDESIYKTEPRPEAKTMPNSSTPTSQINTIDSRTLSDVSNISNINASCVSESICNSLNSKLEPTLENLENLDVSAFQAPEDLLDGCRIYLCGFSGRKLDKLRRLINSGGGVRFNQLNEDVTHVIVGDYDDELKQFWNKSAHRPHVVGAKWLLECFSKGYMLSEEPYIHANYQPVEIPVSHKPESKAALLKKKNSSFSKKDFAPSEKHEQADEDLLSQYENGSSTVVEAKTSEARPFNDSTHAEPLNDSTHISLQEENQSSVSHCVPDVSTITEEGLFSQKSFLVLGFSNENESNIANIIKENAGKIMSLLSRTVADYAVVPLLGCEVEATVGEVVTNTWLVTCIDYQTLFDPKSNPLFTPVPVMTGMTPLEDCVISFSQCAGAEKESLTFLANLLGASVQEYFVRKSNAKKGMFASTHLILKERGGSKYEAAKKWNLPAVTIAWLLETARTGKRADESHFLIENSTKEERSLETEITNGINLNSDTAEHP |  | weak but specific signal |
